Values belong to the compound of their own block, whether it stands above or below them.
What was measured:
[1] = test system: HTS (human telomere sequence) d[AG3(TTAG3)3] (DNA, G4) AGGGTTAGGGTTAGGGTTAGGG; test: NMR titration (chemical shifts, intermolecular NOEs); settings: 50 mM NaCl; pH 7, 283 K; binds at both loop ends
[2] = test system: HTS (human telomere sequence) d[AG3(TTAG3)3] (DNA, G4) AGGGTTAGGGTTAGGGTTAGGG; test: luminescence titration; settings: 200 mM KCl, 10 mM potassium phosphate, 1 mM K2EDTA, pH 7.0, 298 K, error ±20%
[3] = test system: HTS (human telomere sequence) d[AG3(TTAG3)3] (DNA, G4) AGGGTTAGGGTTAGGGTTAGGG; test: NMR titration (chemical shifts, line broadening); settings: 50 mM NaCl, pH 7, 298 K
[4] = 7 μM complex, one-set-of-sites fit

SMILES: [Ru+2].[Ru+2].c1ccc(-c2ccccn2)nc1.c1ccc(-c2ccccn2)nc1.c1ccc(-c2ccccn2)nc1.c1ccc(-c2ccccn2)nc1.c1cnc2c(c1)c1nc3c4cccnc4c4ncccc4c3nc1c1cccnc12
- binding [1]: yes

- Kb [2, 4]: 1.16 × 10^7 M^–1
- binding ([3]; binds at both ends): yes
SMILES: [Ru+2].[Ru+2].c1cnc2c(c1)c1nc3c4cccnc4c4ncccc4c3nc1c1cccnc12.c1cnc2c(c1)ccc1cccnc12.c1cnc2c(c1)ccc1cccnc12.c1cnc2c(c1)ccc1cccnc12.c1cnc2c(c1)ccc1cccnc12 [ΛΛ-2]

- Kb [2, 4]: 2.95 × 10^5 M^–1
- binding ([3]; binds mainly at lateral loop end): yes
SMILES: [Ru+2].[Ru+2].c1cnc2c(c1)c1nc3c4cccnc4c4ncccc4c3nc1c1cccnc12.c1cnc2c(c1)ccc1cccnc12.c1cnc2c(c1)ccc1cccnc12.c1cnc2c(c1)ccc1cccnc12.c1cnc2c(c1)ccc1cccnc12 [ΔΔ-2]

- Kb ([2]; apparent, diastereomeric mixture): 1.77 × 10^7 M^–1
SMILES: [Ru+2].[Ru+2].c1cnc2c(c1)c1nc3c4cccnc4c4ncccc4c3nc1c1cccnc12.c1cnc2c(c1)ccc1cccnc12.c1cnc2c(c1)ccc1cccnc12.c1cnc2c(c1)ccc1cccnc12.c1cnc2c(c1)ccc1cccnc12

— article PMC3835060 (2013)
